Like-named read-outs stand apart in the source and are kept apart here.
Legend:
MutuDC1940 cells = experiment: Transfection efficiency of mCherry mRNA LNPs in murine dendritic cells (flow cytometry); format: cell-based; conditions: for mRNA endosomal escape and translation / mRNA transfection: MutuDC1940 cells, mCherry mRNA LNPs; for transfection activity when incorporated into LNPs: murine dendritic cells (Example 8)
Procedure: • 1. MutuDC1940 cells (Applied Biological Materials, T0528) were grown according to supplier's instructions in T75 flasks. They were plated at 180,000 cells/well into 24-well plate one day prior to transfection. • 2. LNPs were added in triplicate to each well at the desired mRNA concentration (e.g. 1 μg/mL) in 1 mL media and after 24 h the cells were washed once with DPBS (VWR 02-0119-1000). • 3. 0.2 mL of DPBS (plus 5 mM EDTA, pH 7.4) was then added to facilitate detachment. • 4. The cells were placed at 37° C. for 3 min, until detached. • 5. 0.5 ml DPBS added to each well and the liquid transferred to a flow cytometry tube (Falcon 5 mL #352054). • 6. The tube was centrifuged at 1100 rpm for 3-5 min and the liquid poured off. • 7. 100 μL of Zombie Violet (Biolegend) (diluted 1:500 in PBS) was added to each tube. • 8. The tubes were gently tapped to resuspend cells and placed in the dark for 15 min at RT. • 9. To the cells 0.5 mL of (paraformaldehyde 4% in PBS:DPBS 1:1) was added and the cells flicked gently to resuspend and put on ice for 30 min. Another 2 ml PBS was added. • 10. The cells were pelleted as above and resuspended in 0.5 mL DPBS with 5% BSA and placed in the fridge until needed.
Cells suspensions were analyzed by an Attune NxT flow cytometer using the VL1 and YL2 for live/dead and mCherry fluorescence signals respectively. Gating analysis was performed on FloJo software.

TLR7/8 = experiment: In vivo inflammatory profile of UUGU oligoribonucleotides in LNP formulations using different ICLs (Example 28; serum and dLNs); set-up: species or system mice; conditions: 1 ug UUGU dose
Source text: Blood and dLNs (pooled iliac, popliteal and inguinal LNs) were harvested 6 hrs post-injection. […] No. 740622). LNs were weighed prior to lysis, and analyte concentrations were converted from pg/mL to pg/mg of tissue mass. […] The analyte concentrations in the blood serum are reported in Table 68 and the mean fold changes over vehicle treatment are shown in Table 69. The analyte concentrations in the dLNs are reported in Table 70 and the mean fold changes over vehicle treatment are shown in Table 71. The primary aim of this study was to examine the effect of various ionizable cationic lipids (ICLs) on the delivery of a UUGU oligoribonucleotide to TLR7/8 located intracellularly in endolysosomal compartments. We also sought to determine whether PS-targeting of LNPs influenced activity. […] UUGU oligos were encapsulated in LNPs formulated with KC-OA family ICLs, AKG-UO-DM2, DODMA, or DODAP. We also tested the ALC-0315 and SM-102 LNP formulations. The effect of PS targeting on biological activity was also assessed using either DOPS or DPPS formats.

TLR9 = experiment: In vivo inflammatory profile of CpG-ODN 1018 in LNP formulations with various ICLs (Example 27; serum and dLNs); set-up: species or system BALB/c mice; conditions: 1 μg dose CpG
[1] = Apparent solubility of phosphatidylserine salts in ethanol (shake flask); format: physicochemical; conditions: for Solubility, mM phosphatidylserine: 100% ethanol at room temperature, 24 hours, average±SD (N=3)
Procedure: Apparent solubilities of phosphatidylserine salts in ethanol were determined by shake flask technique. Sodium and ammonium salts of phosphatidylserines in the powder form were obtained from Avanti Polar Lipids (Alabama, USA). Aliquots of phosphatidylserine salt powder were placed in 12×75 borosilicate glass tubes in triplicate. Three mL of 200 proof ethanol (catalog number E-7023, MilliporeSigma, USA) were added, the tubes were closed with polyethylene snap caps, agitated using vortex mixer for 10-15 s to obtain uniform suspensions, and placed in a horizontal position on a rocking platform at room temperature (20-22° C.) overnight. The ambient temperature at the end of incubation was 20.4-20.9° C. After 24 hours incubation, the suspensions were visually checked for the presence of a solid phase, allowed to settle under gravity, and the supernatant solutions were passed through a 0.2-μm PTFE syringe membrane filters. The first 0.5 ml of the filtrate was discarded, the next 1 ml was collected, and phosphatidylserine in the filtrates was quantified by phospholipid phosphate assay as follows: 20 μL aliquots of the filtrate were taken in triplicate into glass tubes, ethanol was evaporated in a stream of argon at 70° C., and the residue was digested in a mixture of 60 μL concentrated sulfuric acid and 20 μL 30% hydrogen peroxide for 10 min at 180-190° C. The digested samples were diluted with 1 mL of deionized water, 20 μL of 10% sodium sulfite was added to destroy any residual peroxide, and the samples were incubated on a boiling water bath for 15 min to hydrolyze any condensed phosphate species. The samples were chilled down to room temperature, mixed with 0.2 mL of 2% (w/w) ammonium molybdate solution and 20 μL of 10% (w/w) ascorbic acid solution, incubated on a boiling water bath for 10 min, and chilled down in a water bath at room temperature. The phosphate concentration was determined from the optical density of the formed blue phosphomolybdic acid at 825 nm using five-point standard curve from concurrently run standards prepared from the NIST-traceable commercial phosphate standard solution diluted to cover the range of 0-2 mM phosphate (coefficient of determination R^2 >0.9999). Solubility of phosphatidylserine salts was expressed in molarity units of phosphatidylserine (Table 40). The data are average±SD (N=3).

[2] = for % of main lipid peak to To: 1% H2O2/100 μM Fe(III)Cl, 37° C.
Procedure: The aim of this studies was to compare stability of ionizable cationic lipids under accelerated oxidation.
Prior to the experiment, 75 μl of a lipid stock was mixed with 75 μl of ultra-pure water (Rx Biosciences, cat #P01-UPW02-1000) to make 0.5 mM of cationic lipids and 5 mM of linoleic acid respectively. A combined stock in water of 10% H2O2 (Sigma-Aldrich, cat #H1009) and 1 mM of Fe(III)Cl (Sigma-Aldrich, cat #372870) was freshly by prepared prior to the experiment. To make 1% final concentration of H2O2 and 100 μM Fe(III)Cl, 15 μl of 10% H2O2/1 mM Fe(III)C1 stock was added to 135 μl of individual lipids The liposomes and individual lipids were incubated with H2O2/Fe(III)C1 at 37° C. and then 5 μl from each sample was taken at different time points (0, 24, 48, 72 and 96 hours) and dissolved in 90 μl of MeOH for HPLC analysis. Degradation of the main lipid peak was analyzed using Thermo Scientific Vanquish Flex UHPLC occupied with Charged Aerosol Detector (CAD) and Phenomenex™ Kinetex C8 column (L=150 mm, D=2.1 mm, Particle Size=1.7 μm, 100 A).
The data are presented as a percentage of the main lipid peak measured at different time points relative to the lipid peak measured at time zero.

human dendritic cells = experiment: Transfection efficiency of mCherry mRNA LNPs in human dendritic cells (flow cytometry); conditions: human dendritic cells (Example 9)
Procedure: Four days prior to transfection, monocytes were isolated using CD14 isolation kit (StemCell) from PBMCs of healthy donors. […] The monocytes were cultured with IL-4 (R&D 1000 IU/mL) and GM-CSF (R&D, 800 IU/mL) in a 6 well dish at 1×10^6 cells/mL at 37° C., 5% CO2. After 4 days the immature DCs were harvested and seeded in a 96 well round bottom plate at 50,000 cells/well. LNPs were thawed by placing the vials in a 37° C. water bath for 30 seconds, or until the sample had almost fully melted. The vials were immediately placed on ice until use. The LNPs were added to final concentrations of 1 μg/ml and 0.1 μg/mL mRNA. For 1 μg/mL treatment, LNPs were added directly to each well then wells were mixed by pipetting. For 0.1 μg/mL treatment, LNPs were diluted 1:10 in complete media then added to each well and mixed by pipetting. After 4 h a maturation cytokine cocktail was added directly to each well consisting of TNF-α (R&D, 10 ng/mL), IL-1b (R&D, 2 ng/mL), IL-6 (R&D, 1000 IU/mL), and PGE1 (R&D, 1 μg/mL). After 24 h, the cells were centrifuged, washed in PBS and analyzed by flow cytometry for mCherry fluorescence. Gating analysis was performed using CytExpert software.

[3] = Semple et al., (2010) Nature Biotech. 28 (2) 172-176; cited from earlier work

CCCCCCCC/C=C\CCCCCCCC(=O)OC[C@H](CCN(C)C)OC(=O)CCCCCCC/C=C\CCCCCCCC [AKG-OA-DM2, (S)-4-(dimethylamino)butane-1,2-diyl dioleate]
mRNA endosomal escape and translation / mRNA transfection (MutuDC1940 cells): relatively poor for mRNA transfection | induction of a proinflammatory signature by UUGU LNPs by ICL (TLR7/8): most potent LNP adjuvant formulation | induction of a proinflammatory signature by UUGU LNPs by ICL (TLR7/8; listed as AKG-UO-DM2): most efficient | levels of IL-12p70 and type I IFN-α in the blood and dLNs (TLR9): highest levels

CCCCCCCC/C=C\CCCCCCCC(=O)OC[C@H](CCCN(C)C)OC(=O)CCCCCCC/C=C\CCCCCCCC [AKG-OA-DM3, (S)-5-(dimethylamino)pentane-1,2-diyl dioleate]
mRNA endosomal escape and translation / mRNA transfection (MutuDC1940 cells): relatively poor for mRNA transfection

CCCCCCCCCCCCCCCCCC(=O)OC[C@H](COP(=O)(O)OC[C@H](N)C(=O)O)OC(=O)CCCCCCCCCCCCCCCCC.N [DSPS ammonium]
Solubility, mM phosphatidylserine [1]: 0.034 ± 0.004 mM

CCCCCCCC/C=C\CCCCCCCC1(CCCCCCC/C=C\CCCCCCCC)OC[C@H](CCCN(C)C)O1 [KC3-17 (C8:1), 3-((S)-2,2-di((Z)-heptadec-8-en-1-yl)-1,3-dioxolan-4-yl)-N,N-dimethylpropan-1-amine]
transfection activity when incorporated into LNPs (MutuDC1940 cells): highest activity | % of main lipid peak to To ([2]; 24 h): 66.1 ± 0.6% | % of main lipid peak to To ([2]; 48 h): 58.4 ± 1.5% | % of main lipid peak to To ([2]; 72 h): 45.9 ± 4.7% | transfection activity when incorporated into LNPs (human dendritic cells): highest activity

CCCCCCCC/C=C\CCCCCCCCC1(CCCCCCCC/C=C\CCCCCCCC)OC[C@H](CCCN(C)C)O1 [KC3-OA, 3-((S)-2,2-di((Z)-octadec-9-en-1-yl)-1,3-dioxolan-4-yl)-N,N-dimethylpropan-1-amine]
mRNA endosomal escape and translation / mRNA transfection (MutuDC1940 cells): relatively efficient | transfection activity when incorporated into LNPs (MutuDC1940 cells): highest activity | % of main lipid peak to To ([2]; 24 h): 88.9 ± 0.5% | % of main lipid peak to To ([2]; 48 h): 84.6 ± 0.9% | % of main lipid peak to To ([2]; 72 h): 79.0 ± 0.1% | induction of a proinflammatory signature by UUGU LNPs by ICL (TLR7/8): most efficient | transfection activity when incorporated into LNPs (human dendritic cells): highest activity

CCCCCCCCCCCCCCCC(=O)OC[C@H](COP(=O)(O)OC[C@H](N)C(=O)O)OC(=O)CCCCCCCCCCCCCCC.N [DPPS ammonium]
ethanol solubility compared to ammonium salt of DSPS or the sodium salts [1]: several-fold higher | Solubility, mM phosphatidylserine [1]: 0.865 ± 0.060 mM

CCCCCCCC/C=C\CCCCCCCCOC[C@H](CN(C)C)OCCCCCCCC/C=C\CCCCCCCC [DODMA, reference compound]
induction of a proinflammatory signature by UUGU LNPs by ICL (TLR7/8): most efficient

CCCCC/C=C\C/C=C\CCCCCCCCC1(CCCCCCCC/C=C\C/C=C\CCCCC)OCC(CCCN(C)C)O1 (stereo not drawn) [KC3, reference compound]
degradation relative to other cationic lipids under the forced oxidation with H2O2 [2]: fastest degradation | % of main lipid peak to To ([2]; 24 h): 11.2 ± 1.0% | % of main lipid peak to To ([2]; 48 h): 10.5 ± 0.5% | % of main lipid peak to To ([2]; 72 h): 0 ± 0%

CCCCC/C=C\CCCC/C=C\CCCCCC1(CCCCC/C=C\CCCC/C=C\CCCCC)OC[C@H](CCCN(C)C)O1 [KC3-01, 3-((S)-2,2-di((6Z,12Z)-octadeca-6,12-dien-1-yl)-1,3-dioxolan-4-yl)-N,N-dimethylpropan-1-amine]
transfection activity when incorporated into LNPs (human dendritic cells): highest activity

CCCCCCCCCCCCCCCCCC(=O)OC[C@H](COP(=O)(O)OC[C@H](N)C(=O)[O-])OC(=O)CCCCCCCCCCCCCCCCC.[Na+] [DSPS sodium]
Solubility, mM phosphatidylserine [1]: 0.111 ± 0.009 mM

CCCCCCCCCCCCCCCCCC1(CCCCCCCCCCCCCCCCC)OC[C@H](CCCN(C)C)O1 [KC3-17, (S)-3-(2,2-diheptadecyl-1,3-dioxolan-4-yl)-N,N-dimethylpropan-1-amine]
transfection activity when incorporated into LNPs (MutuDC1940 cells): completely inactive | % of main lipid peak to To ([2]; 24 h): 92.9 ± 0.3% | % of main lipid peak to To ([2]; 48 h): 91.8 ± 1.2% | % of main lipid peak to To ([2]; 72 h): 90.2 ± 1.2%

CCCCCC/C=C\CCCCCCCCC1(CCCCCCCC/C=C\CCCCCC)OC[C@H](CCCN(C)C)O1 [KC3-PA, 3-((S)-2,2-di((Z)-hexadec-9-en-1-yl)-1,3-dioxolan-4-yl)-N,N-dimethylpropan-1-amine]
% of main lipid peak to To ([2]; 24 h): 62.7 ± 0.1% | % of main lipid peak to To ([2]; 48 h): 59.2 ± 0.8% | % of main lipid peak to To ([2]; 72 h): 60.2 ± 0.6% | transfection activity when incorporated into LNPs (human dendritic cells): highest activity

CCCCCCCC/C=C\CCCCCCCCC1(CCCCCCCC/C=C\CCCCCCCC)OC[C@H](CCN(C)C)O1 [KC2-OA, 2-((S)-2,2-di((Z)-octadec-9-en-1-yl)-1,3-dioxolan-4-yl)-N,N-dimethylethan-1-amine]
mRNA endosomal escape and translation / mRNA transfection (MutuDC1940 cells): relatively efficient

CCCCCCCCCCCCCCCC(=O)OC[C@H](COP(=O)(O)OC[C@H](N)C(=O)[O-])OC(=O)CCCCCCCCCCCCCCC.[Na+] [DPPS sodium]
Solubility, mM phosphatidylserine [1]: 0.201 ± 0.004 mM

CCCCCCCC/C=C\CCCCCCCCC1(CCCCCCCC/C=C\CCCCCCCC)OCC(CCCCN(C)C)O1 (racemic) [KC4-OA, 4-rac-2,2-di((Z)-octadec-9-en-1-yl)-1,3-dioxolan-4-yl)-N,N-dimethylbutan-1-amine]
mRNA endosomal escape and translation / mRNA transfection (MutuDC1940 cells): relatively efficient

CCCCC/C=C\C/C=C\CCCCCCCCC1(CCCCCCCC/C=C\C/C=C\CCCCC)OCC(CCN(C)C)O1 (stereo not drawn) [KC2]
activity of KC2 compared to KC3 [3]: 6 fold
